Reference: PMC11276905 (International Journal of Molecular Sciences, 2024)
Entries after “also recorded” stand apart in the source; their conditions may differ. Like-named read-outs stand apart in the source and are kept apart here.

What was measured:
[1] = biological target: T1, isolated HNE (human neutrophil elastase) (Homo sapiens, UniProt P08246); experiment: Inhibition of isolated HNE, steady-state kinetics (MeOSuc-AAPV-AMC); assay type: biochemical
T1 construct: immediately processed to its active form in the trans-Golgi before being targeted to azurophil granules; purchased Merck (Darmstadt, Germany) 324681
T1 sequence (P08246 30-267): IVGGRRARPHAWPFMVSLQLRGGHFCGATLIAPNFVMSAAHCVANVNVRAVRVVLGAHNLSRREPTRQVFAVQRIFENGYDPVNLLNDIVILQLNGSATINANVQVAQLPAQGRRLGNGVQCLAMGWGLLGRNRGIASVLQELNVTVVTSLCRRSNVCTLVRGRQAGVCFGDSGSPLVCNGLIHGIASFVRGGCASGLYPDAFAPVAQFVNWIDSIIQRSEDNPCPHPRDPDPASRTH
Procedure: (§1) To determine the inhibition constants of reversible inhibitors with isolated HNE and HNE in cell lysates, HNE (0.5 nM) and U937 lysates (1000 cells/µL) were incubated with serial dilutions of the compounds in assay buffer at 37 °C for ≥ 1 h. Subsequently, residual HNE activity was measured as described above and compared to the activity of uninhibited HNE. […] The inhibition curves generated were fitted to Morrisons’s equation to obtain the dissociation equilibrium constant Ki with pro-Fit (Quantum Soft, Uetikon am See, Switzerland) using a Levenberg–Marquardt algorithm.

HNE in U937 lysates = biological target: T2, HNE in U937 lysates (Homo sapiens, UniProt P08246); experiment: Inhibition of HNE activity in U937 lysates; assay type: biochemical; conditions: for Ki: U937 lysate 1000 cells/µL, incubated 1 h 37 °C, Morrison fit
T2 construct: the myeloid cell line U937, which can differentiate into neutrophils [25] and expresses HNE; host or cells: U937 (histiocytic lymphoma), undifferentiated
T2 sequence (P08246 30-247 limits assumed): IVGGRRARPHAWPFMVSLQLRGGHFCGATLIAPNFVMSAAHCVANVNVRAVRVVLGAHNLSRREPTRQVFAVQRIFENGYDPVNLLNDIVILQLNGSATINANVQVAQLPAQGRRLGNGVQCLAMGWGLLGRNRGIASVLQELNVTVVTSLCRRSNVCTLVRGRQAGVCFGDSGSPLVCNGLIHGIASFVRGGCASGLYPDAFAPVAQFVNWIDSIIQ
Procedure: (§2) For the quantification and characterization of HNE-like activity in cell lysates, the density of the sample cell suspension was first quantified using a CASY-1 cell counter.
as §1

isolated HNE = biological target: T3, isolated HNE (Homo sapiens, UniProt P08246); experiment: Formation and dissociation of the HNE/inhibitor complex (pre-steady-state kinetics); assay type: biochemical; conditions: for koff: koff = Ki × kon, irreversible inhibitors ≈ zero; for kon: pre-steady-state kinetics, HNE 0.6 nM, 37 °C, mean ± SD
T3 construct: immediately processed to its active form in the trans-Golgi before being targeted to azurophil granules; purchased Merck (Darmstadt, Germany) 324681
T3 sequence (P08246 30-267): T1 sequence (P08246 30-267)
Procedure: To determine the association rates (kon) of the inhibitors, the enzymatic activity of HNE (0.6 nM) was recorded continuously in an SFM25 fluorometer (Biotek Kontron, Neufahrn, Germany) by following the cleavage of MeOSuc-AAPV-AMC (10 µM) at 37 °C. When a constant rate was established (i.e., after 1–5 min), an inhibitor was added, and the reaction followed for up to 60 min. The pseudo-first-order rate constant kobs was obtained by fitting the observed presteady-state progress curve to the integrated equation of Morrison with pro-Fit. Apparent second-order rate constants were subsequently calculated as k2/Ki = kobs/It by linear regression from several independent experiments using a range of concentrations. For reversible inhibitors, the dissociation rate koff was subsequentially calculated as koff = Ki × kon; for irreversible inhibitors, koff is ≈ zero. Finally, the halftime of the HNE/inhibitor complex formation and dissociation were calculated as t1/2,on = 0.693/(kass × It + koff) and t1/2,off = 0.693/koff, respectively.

HNE in U937 cells = biological target: T4, HNE in U937 cells (Homo sapiens, UniProt P08246); experiment: Intracellular HNE inhibition in cultured U937 cells (residual activity in lysates); assay type: cell-based; conditions: for effect on HNE activity in the U937 cell culture model (in words): 0-26 h, increasing concentrations, alvelestat and sivelestat up to more than 1000-fold above Ki; for time course of HNE inhibition in U937 cells (in words): 0-26 h culture
T4 construct: the myeloid cell line U937, which can differentiate into neutrophils [25] and expresses HNE; host or cells: U937 (histiocytic lymphoma), undifferentiated
T4 sequence (P08246 30-247 limits assumed): T2 sequence (P08246 30-247 limits assumed)
Procedure: (§3) The enzymatic activity of HNE was measured using a fluorescence-based assay in 96-well black bottom plates (Corning®, 003916, New York, NY, USA). HNE (0.5 nM) or cell lysates (20 µL, ~100 PMN/µL, ~1000 U937/µL, ~5000 HL-60/µL or ~1000 HMC-1/µL) were diluted in assay buffer (200 mM TRIS HCl, 500 mM NaCl, 0.05% Tween-20, pH 8.0). […] AMC (7-Amino-4-methylcoumarin) standard curves were generated by measuring serial dilutions of the fluorophore AMC (1 µM–0 µM) in assay buffer on the same plate and used to calculate nM AMC generation from fluorescence measurements.
(§4) U937 cells were plated in sterile 96-U-well plates (92697, TPP, Trasadingen, Switzerland) at a density of 100 cells/µL in a cell culture medium (180 µL per well). Increasing concentrations of inhibitors and solvent controls were diluted in a culture medium and added (20 µL/well) to the 96-well plate 26 h, 6 h, 3 h, and 0 h before harvesting and lysing the cells (see below). Plates were kept at 37 °C, 5% CO2, and 95% humidity throughout the incubation period. […] Similarly, freshly isolated PMN were plated at 50–100 cells/µL in PBS (1 g/L glucose) and incubated for 1 h with inhibitors or controls.
(§5) For cell lysis, cells were pelleted in the microtiter plates by centrifugation (400× g, 10 min, 4 °C) and washed three times in PBS (4 °C). Washed cells were then lysed by adding lysis buffer (PBS, 1 M NaCl, 0.1% Tween-20, pH 7.4) and freeze–thawing on dry ice. Finally, lysates were centrifuged (2100× g) to remove cell debris. Enzymatic activity of HNE was determined as described above, and residual activity present after incubation with inhibitors expressed as % of matched solvent controls.

HNE in mature PMN = biological target: T5, HNE in mature PMN (Homo sapiens, UniProt P08246); experiment: Intracellular HNE inhibition in freshly isolated mature PMN
T5 sequence (P08246 30-247 limits assumed): T2 sequence (P08246 30-247 limits assumed)
Procedure: Peripheral venous blood was collected from six healthy donors after informed consent (votum 018-09 of the local ethics committee), and differential blood counts were performed. Neutrophil granulocytes were isolated using the MACSxpress neutrophil isolation kit (Miltenyi Biotec, Bergisch Gladbach, Germany) following the manufacturer’s instructions. Residual erythrocytes were eliminated by hypotonic lysis. Neutrophils were resuspended in PBS with glucose (1 g/L) at a density of 50–100 cells/µL. The purity of the final cell population was analyzed by staining a smear using Pappenheim’s method and counting ≥200 cells using a light microscope.
as §3, §4, §5

[2] = biological target: T6, elastase-like activity (HNE) in PMN lysates (Homo sapiens, UniProt P08246); experiment: Inhibition of elastase-like activity in PMN lysates; assay type: biochemical; conditions: 1 h, 37 °C
T6 construct: from tissue; host or cells: neutrophil granulocytes from peripheral venous blood of healthy human donors
T6 sequence (P08246 30-247 limits assumed): T2 sequence (P08246 30-247 limits assumed)
Excerpt: Residual erythrocytes were eliminated by hypotonic lysis.
as §2

[3] = tested on: elastase-like activity in HL-60 lysates; experiment: Inhibition of elastase-like activity in HL-60 lysates; assay type: biochemical, human; conditions: 1 h, 37 °C
Excerpt: as §2

[4] = Inhibitor stability in serum-free cell culture medium; assay type: physicochemical; conditions: 26 h, 37 °C
Procedure: Inhibitors were prepared as above and incubated for 26 h in RPMI at 37 °C. Residual inhibitor activity was compared to the activity of freshly prepared compounds by measuring the inhibition of HNE.

U937 cells [5] = experiment: LDH release from U937 cells; assay type: cell-based, human; conditions: after 26 h
Procedure: Cytotoxicity of the inhibitors was determined by analyzing the release of lactate dehydrogenase (LDH) into the cell culture medium using the LDH cytotoxicity kit II (PromoKine, Heidelberg, Germany) or the more sensitive Pierce LDH cytotoxicity assay kit (Thermo Scientific, Darmstadt, Germany) following the manufacturer’s instructions.

[6] = biological target: T1, isolated HNE (human neutrophil elastase); experiment: Inhibition of isolated HNE, steady-state kinetics (MeOSuc-AAPV-AMC); assay type: biochemical; conditions: read-out: IC50(60min), isolated HNE; irreversible inhibitors, incubated 1 h, logistic fit, mean ± SD
U937 cells [7] = experiment: Proliferation of U937 cells; assay type: cell-based, human; conditions: concentrations ≥300 µM
Procedure: U937 cells were plated in sterile 96-U-well plates (92697, TPP, Trasadingen, Switzerland) at a density of 100 cells/µL in a cell culture medium (180 µL per well). Increasing concentrations of inhibitors and solvent controls were diluted in a culture medium and added (20 µL/well) to the 96-well plate 26 h, 6 h, 3 h, and 0 h before harvesting and lysing the cells (see below). Plates were kept at 37 °C, 5% CO2, and 95% humidity throughout the incubation period.

eglin C [8] = biological target: T7, eglin C (Hirudo medicinalis, UniProt P01051); experiment: steady-state inhibition, Morrison fit, isolated HNE
T7 chain: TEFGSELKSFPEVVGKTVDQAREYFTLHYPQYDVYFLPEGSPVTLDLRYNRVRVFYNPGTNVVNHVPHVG

eglin C [9] = biological target: T7, eglin C; experiment: steady-state inhibition, Morrison fit, U937 lysate
surface of neutrophils = tested on: surface of neutrophils; design: method as in earlier work; conditions: ref 41 (Braun and Schnebli); read-out: surface binding affinity Kd; cited from earlier work
[10] = read-out: IC50, HNE in PMN, 1 h incubation

N=C(N)c1ccccc1 [Benzamidine, benzamidine]
Ki ([1]; HNE 0.5 nM, incubated 1 h 37 °C, Morrison fit, mean ± SD, compound 5b in phosphate buffer pH 7.4): > 1 mM
inhibition of HNE (in words) ([1]; negative controls): no inhibition
Ki (HNE in U937 lysates; mean ± SD): > 1000 µM

CC(C)(C)C(=O)Oc1ccc(S(=O)(=O)Nc2ccccc2C(=O)NCC(=O)O)cc1 [Sivelestat, sivelestat]
half-life of the complex with HNE (in words) (isolated HNE): seconds to a few minutes
effect on HNE activity in the U937 cell culture model (in words) (HNE in U937 cells): no detectable effect; also recorded: no measurable effect; also recorded: do not cause detectable intracellular inhibition
inhibition at 4 µM ([1]; 4 µM, 1 h, 37 °C, HNE 0.5 nM): 99 ± 0.3%
effect on HNE in mature PMN (in words) (HNE in mature PMN; 1 h incubation): negligible effect
potency in PMN compared with U937 cells (in words) (HNE in mature PMN; PMN 1 h vs U937 0-3 h): somewhat more effective in PMN than U937 cells
inhibition at 4 µM (HNE in U937 lysates; 4 µM, 1 h, 37 °C, read-out: inhibition of elastase-like activity in U937 lysate): 96 ± 0.3%
inhibition at 4 µM ([2]; 4 µM, read-out: inhibition of elastase-like activity in PMN lysate): 97 ± 0.6%
inhibition of elastase-like activity in HL-60 lysate ([3]; 4 µM): 2 ± 1.2%

COc1cc(C(C)C)c2c(c1)S(=O)(=O)N(COc1cc(=O)n3cccc(OCCN4CCCCC4)c3n1)C2=O [SSR 69071]
koff (isolated HNE): 9.2e-05 s⁻¹
kon (isolated HNE): 2.8 ± 0.06 × 10^5 M^−1 s^−1
stability in cell culture medium (in words) ([4]; serum-free medium): appeared stable
time course of HNE inhibition in U937 cells (in words) (HNE in U937 cells): most effective immediately after addition and then lose effect over time; also recorded: lose effectiveness over time
Ki (HNE in U937 lysates; mean ± SD): 0.00033 µM
LDH release from U937 cells (U937 cells [5]; 12.5 µM): 12 ± 2%

Cl.NCCc1ccc(S(=O)(=O)F)cc1 [Pefabloc SC]
kon (isolated HNE): 1.0 ± 0.1 M⁻¹ s⁻¹
decrease of inhibitory activity after incubation in medium ([4]; serum-free medium (RPMI)): approximately 50%
time course of HNE inhibition in U937 cells (in words) (HNE in U937 cells): increases during the first 6 h; also recorded: lose effectiveness over time
IC50 (HNE in U937 cells; 0 h incubation, read-out: IC50, HNE in U937 cells at 0 h): ~100 µM
inhibition of HNE in intact U937 cells (HNE in U937 cells; at ~10^−3 M): nearly complete inhibition
IC50 (HNE in U937 cells; intact U937 cells, time not specified, read-out: IC50, HNE in intact U937 cells): ~100 µM
IC50 (HNE in U937 cells; read-out: IC50, HNE in U937 cells at 6 h, 6 h incubation): ~10 µM
inhibition of activity of isolated HNE ([1]; 1 mM, 1 h, 37 °C, HNE 0.5 nM): 98 ± 0.6%
inhibition of isolated HNE ([1]; at ~10^−3 M): nearly complete inhibition
IC50 [6]: 130 µM
IC50 (HNE in mature PMN; [10]): ~100000 nM
inhibition of elastase-like activity in U937 lysate (HNE in U937 lysates; 1 mM, 1 h, 37 °C): 91 ± 0.6%
IC50 (HNE in U937 lysates; read-out: IC50(60min), U937 lysate, irreversible inhibitors, incubated 1 h, logistic fit, mean ± SD): 130 µM
inhibition of elastase-like activity in PMN lysate ([2]; 1 mM): 97 ± 0.6%
inhibition of elastase-like activity in HL-60 lysate ([3]; 1 mM): 95 ± 1%
LDH release from U937 cells (U937 cells [5]; 1000 and 300 µM): 12 ± 2%
reduction of U937 cell proliferation (U937 cells [7]): 50 ± 3%

B1: neutrophil elastase (protein)
chain: T1 sequence (P08246 30-267)
Ki (eglin C [8]): 0.013 nM
Ki (eglin C [9]): 0.19 nM

B2: Eglin C: small leech-derived protein (70 amino acids, 8091 Da), proteinase inhibitor (protein, UniProt P01051 1-70, looked up)
Eglin C: T7 chain
koff (isolated HNE): 3.8e-05 s⁻¹
kon (isolated HNE): 2.9 ± 0.09 × 10^6 M^−1 s^−1
effect on HNE activity in the U937 cell culture model (in words) (HNE in U937 cells): do not inhibit HNE
effect on HNE in U937 cells (HNE in U937 cells; 10 µM, after 26 h): little effect
effect on HNE in mature PMN (in words) (HNE in mature PMN; 1 h incubation): inhibits intracellular HNE but only in mature neutrophils
IC50 (HNE in mature PMN; [10]): ~20 nM
IC50 (HNE in mature PMN; read-out: IC50 for the inhibition of intracellular HNE, mature neutrophils): 20 nM
fold less effective on HNE in cell lysates than on isolated HNE (HNE in U937 lysates; U937 lysate vs isolated HNE): 10 fold
fold less potent in PMN lysates (HNE in U937 lysates; printed 'PMN lysates'): ~ 10 fold
Kd (surface of neutrophils): 200 nM
